Publication PMC7248381, “Structure and Characterization of a Covalent Inhibitor of Src Kinase” (Frontiers in Molecular Biosciences, 2020)

What was measured:
Src kinase = Src kinase (Homo sapiens, UniProt P12931); assay: Src enzymatic activity, mobility shift assay (MSA)
Protocol: Here, we evaluated the relative potency of inhibitors on Src enzymatic activity using a mobility shift assay (MSA), which measures phosphorylation of a peptide substrate of Src. […] The kinase reaction buffer consisted of 100 mM Hepes, pH 7.3, 0.015% Brij-35, 0.004% Tween-20, and 10 mM MgCl2. […] The percent conversion was determined by EZReader 3.0 software and analyzed using GraphPad software version 7 (La Jolla, California, USA) for determination of IC50 values.

[1] = design: method as in earlier work; settings: comparison values, ref Gierse et al., 1999, Papp-Wallace et al., 2014, Schwartz et al.; cited from earlier work

Src kinase, sequence (P12931 254-536): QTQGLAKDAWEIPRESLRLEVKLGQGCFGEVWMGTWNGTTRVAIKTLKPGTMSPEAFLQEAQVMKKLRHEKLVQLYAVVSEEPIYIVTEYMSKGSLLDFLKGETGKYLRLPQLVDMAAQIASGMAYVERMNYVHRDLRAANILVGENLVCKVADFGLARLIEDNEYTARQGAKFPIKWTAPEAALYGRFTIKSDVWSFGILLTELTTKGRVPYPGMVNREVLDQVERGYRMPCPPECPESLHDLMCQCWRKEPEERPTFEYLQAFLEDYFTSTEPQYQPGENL

Row | Structure (SMILES) | IC50 (Src kinase) [nM] | inactivation rate constant (kinact) [1] [s⁻¹]
1 | C=CC(=O)Nc1ccccc1Nc1nc(Nc2ccc(N3CCN(C)CC3)cc2)ncc1Cl [SM1-71] | 26.6 | 
2 | CN(C)C/C=C/C(=O)Nc1cc2c(Nc3ccc(F)c(Cl)c3)ncnc2cc1O[C@H]1CCOC1 [afatinib] |  | 0.001
3 | CCOc1cc2ncc(C#N)c(Nc3ccc(OCc4ccccn4)c(Cl)c3)c2cc1NC(=O)/C=C/CN(C)C [neratinib] |  | 0.002
